The results in this text go back to patent US9765065B2, “Therapeutic substituted cyclopentanes” (ALLERGAN, INC., priority 2007, dated 2017).

For orientation: EC50 means the concentration needed to bring the measured effect to its halfway point. The term Ki denotes the dissociation constant of the complex between target and ligand, obtained from inhibition or displacement. A higher Ki goes with lower affinity.

The target in experiment [1] is T1, EP2 (Homo sapiens, UniProt P43116). As to the kind of experiment: EP2 flipr. The experiment is classed as cell-based. The source says:
(§1) U.S. patent application Ser. No. 11/553,143, filed on Oct. 26, 2006, incorporated by reference herein in its entirety, describes the methods used to obtain the in vitro data in the table below.

Experiment [2] concerns the target T1, EP2. As to the kind of experiment: EP2 cAMP. The experiment is classed as cell-based.
Text: as §1

The target in experiment [3] is T1, EP2. Description: EP2 binding Ki.
Text: as §1

Experiment [4] has as its target T2, EP4 (Homo sapiens, UniProt P35408). As to the kind of experiment: EP4 flipr. In kind it is cell-based.
Text: as §1

Experiment [5] concerns the target T2, EP4. As to the kind of experiment: EP4 binding Ki.
Text: as §1

A further experiment addresses T3, hEP3A (Homo sapiens, UniProt P43115).
T3 sequence (P43115 1-390): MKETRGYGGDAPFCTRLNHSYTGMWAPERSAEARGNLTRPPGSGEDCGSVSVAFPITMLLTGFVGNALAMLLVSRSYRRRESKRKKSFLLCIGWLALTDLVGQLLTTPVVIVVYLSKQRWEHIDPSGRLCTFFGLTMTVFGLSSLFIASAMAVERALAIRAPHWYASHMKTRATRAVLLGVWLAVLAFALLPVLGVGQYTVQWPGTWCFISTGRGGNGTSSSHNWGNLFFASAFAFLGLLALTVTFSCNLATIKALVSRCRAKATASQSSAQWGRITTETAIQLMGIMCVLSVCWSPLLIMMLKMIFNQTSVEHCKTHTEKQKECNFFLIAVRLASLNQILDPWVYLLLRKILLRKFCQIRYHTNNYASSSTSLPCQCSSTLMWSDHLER
As to the kind of experiment: Other receptors hEP3A. In kind it is cell-based.
Text: as §1

The target of a further experiment is T4, hTP (Homo sapiens, UniProt P21731).
T4 sequence (P21731 1-343): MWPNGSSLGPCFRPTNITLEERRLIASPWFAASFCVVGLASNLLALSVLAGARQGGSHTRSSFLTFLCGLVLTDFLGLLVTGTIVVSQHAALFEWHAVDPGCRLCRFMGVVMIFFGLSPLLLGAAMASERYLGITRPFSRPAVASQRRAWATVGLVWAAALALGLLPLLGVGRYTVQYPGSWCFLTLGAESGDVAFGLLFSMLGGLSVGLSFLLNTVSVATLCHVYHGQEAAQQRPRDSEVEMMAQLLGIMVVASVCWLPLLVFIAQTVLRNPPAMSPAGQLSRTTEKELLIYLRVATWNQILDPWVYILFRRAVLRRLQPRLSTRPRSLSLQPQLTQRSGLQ
As to the kind of experiment: Other receptors hTP. In kind it is cell-based.
Text: as §1

The next experiment deals with T5, hDP (Homo sapiens, UniProt Q13258).
T5 sequence (Q13258 1-359): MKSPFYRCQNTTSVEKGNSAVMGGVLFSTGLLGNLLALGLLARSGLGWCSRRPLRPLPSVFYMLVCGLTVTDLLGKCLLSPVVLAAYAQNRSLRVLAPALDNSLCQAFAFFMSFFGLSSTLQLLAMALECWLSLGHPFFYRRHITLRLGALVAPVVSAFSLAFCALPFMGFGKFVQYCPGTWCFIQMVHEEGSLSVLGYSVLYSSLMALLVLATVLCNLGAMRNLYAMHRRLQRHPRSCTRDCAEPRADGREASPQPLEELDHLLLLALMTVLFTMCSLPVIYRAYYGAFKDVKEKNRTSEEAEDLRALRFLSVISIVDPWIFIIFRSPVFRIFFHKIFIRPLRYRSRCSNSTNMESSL
As to the kind of experiment: Other receptors hDP. The experiment is classed as cell-based.
Text: as §1

Where only a bound is given, the exact number is not on record here.

T2 sequence (P35408 whole entry): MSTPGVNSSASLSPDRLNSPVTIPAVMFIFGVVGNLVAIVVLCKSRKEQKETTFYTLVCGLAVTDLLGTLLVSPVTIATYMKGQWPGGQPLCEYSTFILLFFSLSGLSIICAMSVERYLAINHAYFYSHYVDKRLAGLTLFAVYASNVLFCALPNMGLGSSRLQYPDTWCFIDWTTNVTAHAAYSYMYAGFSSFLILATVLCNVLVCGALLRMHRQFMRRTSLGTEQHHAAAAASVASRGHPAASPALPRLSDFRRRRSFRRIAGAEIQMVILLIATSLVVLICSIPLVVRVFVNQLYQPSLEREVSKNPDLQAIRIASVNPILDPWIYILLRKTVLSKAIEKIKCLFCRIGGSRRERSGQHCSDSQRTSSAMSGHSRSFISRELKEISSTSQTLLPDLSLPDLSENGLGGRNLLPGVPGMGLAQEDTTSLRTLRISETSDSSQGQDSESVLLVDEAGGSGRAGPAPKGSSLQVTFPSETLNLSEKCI
T1 sequence (P43116 whole entry): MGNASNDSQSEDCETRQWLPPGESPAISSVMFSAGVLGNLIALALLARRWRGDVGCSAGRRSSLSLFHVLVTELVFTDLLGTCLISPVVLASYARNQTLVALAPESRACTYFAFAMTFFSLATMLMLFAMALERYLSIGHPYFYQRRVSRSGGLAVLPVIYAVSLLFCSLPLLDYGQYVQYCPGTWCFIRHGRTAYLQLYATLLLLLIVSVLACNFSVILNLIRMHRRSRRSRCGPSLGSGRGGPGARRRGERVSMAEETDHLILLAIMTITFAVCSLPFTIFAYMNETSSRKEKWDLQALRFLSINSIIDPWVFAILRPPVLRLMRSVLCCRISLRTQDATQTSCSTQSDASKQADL

As for `O=C(O)c1ccc(C=CC[C@@H]2[C@@H](C=Cc3cc(Cl)cc(Cl)c3)[C@H](O)C[C@H]2Cl)s1` [Example 1, 5-(3-((1R,2R,3R,5R)-5-chloro-2-(3,5-dichlorostyryl)-3-hydroxycyclopentyl)prop-1-enyl)thiophene-2-carboxylic acid], the EC50 is 37 nM on EP2 [1]; 0.2 nM on EP2 [2]; above 10000 nM on EP4 [4]; above 10000 nM on hEP3A; above 10000 nM at hTP. The inhibition constant (Ki) on EP2 [3] was determined as 2.2 nM; at EP4 [5], 440 nM.
As to `O=C(O)c1ccc(CCC[C@@H]2[C@@H](/C=C/c3cc(Cl)cc(CO)c3)[C@H](O)C[C@H]2Cl)s1` [Example 2, 5-(3-((1R,2R,3R,5R)-5-chloro-2-(3-chloro-5-(hydroxymethyl)styryl)-3-hydroxycyclopentyl)propyl)-thiophene-2-carboxylic acid], the EC50 on EP2 [1] is 85 nM; on EP2 [2], 0.13 nM; at EP4 [4], above 10000 nM; on hDP, above 10000 nM. In addition, the Ki was determined as 2 nM on EP2 [3] and 135 nM at EP4 [5].
Regarding `O=C(O)c1ccc(CCC[C@@H]2[C@@H](/C=C\c3cc(Cl)nc(Cl)c3)[C@H](O)C[C@H]2Cl)s1` [Example 5, 5-(3-((1R,2R,3R,5R)-5-chloro-2-((Z)-2-(2,6-dichloropyridin-4-yl)vinyl)-3-hydroxycyclopentyl)propyl)-thiophene-2-carboxylic acid], the EC50 turned out to be 458 nM on EP2 [1], 3 nM on EP2 [2], 1920 nM at EP4 [4] and 2100 nM on hDP. Further, the Ki on EP2 [3] was determined as 38 nM; on EP4 [5], 1990 nM.
Turning to `O=C(O)c1ccc(CCC[C@@H]2[C@@H](/C=C/c3cc(F)cc(F)c3)[C@H](O)C[C@H]2Cl)s1` [Example 6, 5-(3-((1R,2R,3R,5R)-5-chloro-2-((E)-3,5-difluorostyryl)-3-hydroxycyclopentyl)propyl)thiophene-2-carboxylic acid], the EC50 on EP2 [1] is 22 nM; at EP2 [2], 0.3 nM; at EP4 [4], above 10000 nM; at hTP it was 65300 nM. The values for the Ki at EP2 [3] and on EP4 [5] were 7 nM and 878 nM, respectively.
Take `O=C(O)c1ccc(CCC[C@@H]2[C@@H](/C=C\c3cc(F)cc(F)c3)[C@H](O)C[C@H]2Cl)s1` [Example 7, 5-(3-((1R,2R,3R,5R)-5-chloro-2-((Z)-3,5-difluorostyryl)-3-hydroxycyclopentyl)propyl)thiophene-2-carboxylic acid]: the EC50 came out at 7140 nM at EP2 [1], 207 nM on EP2 [2], 95 nM at hTP and 6370 nM at hDP. In addition, the results for the Ki at EP2 [3] and on EP4 [5] were 425 nM and 3220 nM, respectively.
As to `Cc1cccc(/C=C/[C@@H]2[C@@H](CCCc3ccc(C(=O)O)s3)[C@H](Cl)C[C@H]2O)c1` [Example 12, 5-(3-((1R,2R,3R,5R)-5-chloro-3-hydroxy-2-(3-methylstyryl)cyclopentyl)propyl)thiophene-2-carboxylic acid], the EC50 at EP2 [1] worked out at 17 nM; at EP2 [2], 0.1 nM; on EP4 [4] it was 16900 nM; at hEP3A, 9880 nM; at hTP, 3760 nM; on hDP, 12300 nM. Also, the results for the inhibition constant Ki on EP2 [3] and on EP4 [5] were 2 nM and 144 nM, respectively.
In the case of `O=C(O)c1ccc(CCC[C@H]2C(=O)C[C@@H](O)[C@@H]2C#Cc2ccccc2)s1` [Example 17, 5-(3-((1R,2S,3R)-3-hydroxy-5-oxo-2-(phenylethynyl)cyclopentyl)propyl)thiophene-2-carboxylic acid], the EC50 turned out to be 9 nM on EP2 [1], 0.05 nM on EP2 [2], 33800 nM at EP4 [4] and 11000 nM on hEP3A. In addition, the results for the inhibitory constant (Ki) at EP2 [3] and at EP4 [5] were 5 nM and 700 nM, respectively.
As for `O=C(O)c1ccc(CCC[C@@H]2[C@@H](C#Cc3ccccc3)[C@H](O)C[C@H]2F)s1` [Example 19, 5-(3-((1R,2S,3R,5R)-5-fluoro-3-hydroxy-2-(phenylethynyl)cyclopentyl)propyl)thiophene-2-carboxylic acid], the EC50 is 349 nM at EP2 [1], 0.23 nM on EP2 [2], 26600 nM at EP4 [4] and above 10000 nM on hEP3A. For the same compound, the Ki at EP2 [3] amounted to 4 nM; at EP4 [5], 1020 nM.
Take `N#C[C@@H]1C[C@@H](O)[C@H](C#Cc2ccccc2)[C@H]1CCCc1ccc(C(=O)O)s1` [Example 22, 5-(3-((1S,2S,3R,5R)-5-cyano-3-hydroxy-2-(phenylethynyl)cyclopentyl)propyl)thiophene-2-carboxylic acid]: the EC50 was 235 nM on EP2 [1], 0.18 nM on EP2 [2], 21200 nM on EP4 [4] and above 10000 nM at hEP3A. Besides, the Ki at EP2 [3] was 13 nM; at EP4 [5] it was 587 nM.
Take `O=C(O)c1ccc(CCC[C@@H]2[C@@H](C#Cc3cccs3)[C@H](O)C[C@H]2Cl)s1` [Example 28, 5-(3-((1R,2S,3R,5R)-5-chloro-3-hydroxy-2-(thiophen-2-ylethynyl)cyclopentyl)propyl)thiophene-2-carboxylic acid]: the EC50 turned out to be 0.8 nM at EP2 [2], 5880 nM on EP4 [4], 6520 nM on hEP3A and 18300 nM at hDP. Also, the Ki on EP2 [3] was found to be 10 nM; at EP4 [5], 825 nM.
As for `O=C(O)c1csc(SCC[C@@H]2[C@@H](C#Cc3cc(Cl)cc(Cl)c3)[C@H](O)C[C@H]2Cl)n1` [Example 34, 2-(2-((1R,2S,3R,5R)-5-chloro-2-((3,5-dichlorophenyl)ethynyl)-3-hydroxycyclopentyl)ethylthio)thiazole-4-carboxylic acid], the EC50 is 0.16 nM at EP2 [2], 3.3 nM at EP4 [4], 2880 nM on hEP3A and 14800 nM at hDP. Further, the Ki on EP2 [3] amounted to 1.5 nM; on EP4 [5], 60 nM.
For `O=C(O)c1csc(SCC[C@@H]2[C@@H](C#Cc3ccccc3)[C@H](O)C[C@H]2Cl)n1` [Example 35, 2-(2-((1R,2S,3R,5R)-5-chloro-3-hydroxy-2-(phenylethynyl)cyclopentyl)ethylthio)thiazole-4-carboxylic acid], the EC50 on EP2 [2] worked out at 0.08 nM; at EP4 [4], 10 nM; at hEP3A, 1500 nM; on hDP it was 1030 nM. The results for the Ki at EP2 [3] and at EP4 [5] were 5 nM and 463 nM, respectively.
